ChEMBL document CHEMBL1909046, “DrugMatrix in vitro pharmacology data”

Legend:
[1] = target: T1, Vasoactive intestinal polypeptide receptor 1 (Homo sapiens, UniProt P32241); format: cell membranes, Membrane; settings: ht-29; also: in other assays of this panel Not Active means under 50% inhibition at 10 µM
T1 sequence (P32241 whole entry): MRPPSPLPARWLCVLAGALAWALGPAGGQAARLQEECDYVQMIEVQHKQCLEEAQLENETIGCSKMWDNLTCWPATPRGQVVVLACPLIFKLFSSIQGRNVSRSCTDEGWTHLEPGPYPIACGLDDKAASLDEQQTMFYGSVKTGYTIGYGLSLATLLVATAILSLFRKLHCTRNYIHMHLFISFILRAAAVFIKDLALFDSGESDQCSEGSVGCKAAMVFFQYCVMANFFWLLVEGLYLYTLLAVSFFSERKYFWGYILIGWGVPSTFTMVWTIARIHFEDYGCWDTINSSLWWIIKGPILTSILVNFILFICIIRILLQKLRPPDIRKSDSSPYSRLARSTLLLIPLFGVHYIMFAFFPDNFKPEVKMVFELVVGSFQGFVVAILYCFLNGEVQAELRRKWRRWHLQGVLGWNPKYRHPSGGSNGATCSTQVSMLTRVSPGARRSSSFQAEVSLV

[2] = target: C-C chemokine receptor type 5 (Homo sapiens, UniProt P51681); format: cell membranes, Membrane; settings: hek293; also: in other assays of this panel Not Active means under 50% inhibition at 10 µM
Sequence of C-C chemokine receptor type 5 (P51681 whole entry): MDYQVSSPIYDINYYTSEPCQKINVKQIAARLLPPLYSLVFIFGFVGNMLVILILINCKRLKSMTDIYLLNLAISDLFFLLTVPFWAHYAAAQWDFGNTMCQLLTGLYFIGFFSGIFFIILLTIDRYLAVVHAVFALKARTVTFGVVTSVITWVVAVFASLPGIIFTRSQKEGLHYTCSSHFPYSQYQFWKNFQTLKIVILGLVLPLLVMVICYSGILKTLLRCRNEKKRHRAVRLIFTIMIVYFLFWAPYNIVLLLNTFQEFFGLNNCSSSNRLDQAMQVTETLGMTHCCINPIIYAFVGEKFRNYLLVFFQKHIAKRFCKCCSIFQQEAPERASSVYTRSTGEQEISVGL

Histamine H2 receptor = Histamine H2 receptor (Homo sapiens, UniProt P25021); format: cell membranes, CHO-K1, Membrane; also: in other assays of this panel Not Active means under 50% inhibition at 10 µM
Sequence of Histamine H2 receptor (P25021 whole entry): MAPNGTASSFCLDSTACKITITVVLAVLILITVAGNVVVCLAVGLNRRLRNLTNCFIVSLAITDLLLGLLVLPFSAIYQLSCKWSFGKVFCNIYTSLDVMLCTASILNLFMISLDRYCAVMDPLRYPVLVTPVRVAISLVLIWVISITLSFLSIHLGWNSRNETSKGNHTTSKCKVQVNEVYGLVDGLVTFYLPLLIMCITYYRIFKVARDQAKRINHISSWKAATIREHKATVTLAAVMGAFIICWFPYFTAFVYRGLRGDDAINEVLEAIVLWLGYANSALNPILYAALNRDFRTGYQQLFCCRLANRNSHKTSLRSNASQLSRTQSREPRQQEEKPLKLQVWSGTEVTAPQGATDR

Progesterone receptor = target: T2, Progesterone receptor (Bos taurus, UniProt Q690N0); test: DRUGMATRIX: Progesterone radioligand binding (ligand: [3H] R-5020); format: tissue-based, Uterus; settings: Not Active = under 50% inhibition at 10 µM
T2 sequence (Q690N0 whole entry): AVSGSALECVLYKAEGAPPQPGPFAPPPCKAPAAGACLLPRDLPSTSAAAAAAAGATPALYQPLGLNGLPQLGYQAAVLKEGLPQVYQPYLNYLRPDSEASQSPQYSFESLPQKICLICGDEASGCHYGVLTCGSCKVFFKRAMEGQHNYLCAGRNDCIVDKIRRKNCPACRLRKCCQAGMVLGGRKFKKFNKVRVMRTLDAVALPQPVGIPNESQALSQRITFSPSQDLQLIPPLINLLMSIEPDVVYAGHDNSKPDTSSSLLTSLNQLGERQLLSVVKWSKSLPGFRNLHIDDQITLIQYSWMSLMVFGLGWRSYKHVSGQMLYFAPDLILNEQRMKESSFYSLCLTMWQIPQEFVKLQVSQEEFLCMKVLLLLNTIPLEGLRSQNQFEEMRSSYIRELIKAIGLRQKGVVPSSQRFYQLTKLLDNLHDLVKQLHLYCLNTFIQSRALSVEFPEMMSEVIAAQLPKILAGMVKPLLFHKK

Interstitial collagenase = target: T3, Interstitial collagenase (Homo sapiens, UniProt P03956); test: biochemical; format: tissue-based, Rheumatoid synovial fibroblasts;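 also: MMP-1 enzyme inhibition assay using a peptide substrate; in other assays of this panel Not Active means under 50% inhibition at 10 µM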
T3 sequence (P03956 whole entry): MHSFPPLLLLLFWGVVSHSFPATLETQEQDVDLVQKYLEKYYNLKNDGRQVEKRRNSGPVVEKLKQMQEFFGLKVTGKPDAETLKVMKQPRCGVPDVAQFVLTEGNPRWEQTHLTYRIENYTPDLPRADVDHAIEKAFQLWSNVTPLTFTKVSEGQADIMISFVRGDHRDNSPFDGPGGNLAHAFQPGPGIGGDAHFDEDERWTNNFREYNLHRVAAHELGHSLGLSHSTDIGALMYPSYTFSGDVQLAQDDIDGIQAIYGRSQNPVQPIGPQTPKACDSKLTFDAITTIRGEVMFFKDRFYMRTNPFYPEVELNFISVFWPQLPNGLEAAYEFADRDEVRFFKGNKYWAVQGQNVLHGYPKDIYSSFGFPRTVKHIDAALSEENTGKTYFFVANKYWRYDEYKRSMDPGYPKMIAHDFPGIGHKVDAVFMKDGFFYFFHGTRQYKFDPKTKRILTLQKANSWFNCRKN

[3] = target: Epidermal growth factor receptor (Homo sapiens, UniProt P00533); test: DRUGMATRIX: Protein Tyrosine Kinase, EGF Receptor enzyme inhibition (substrate: Poly(Glu:Tyr)); format: cell-based, Insect cells; settings: Not Active = under 50% inhibition at 10 µM
[4] = target: Sodium-dependent dopamine transporter (Homo sapiens, UniProt Q01959); test: DRUGMATRIX: Dopamine Transporter radioligand binding (ligand: [125I] RTI-55); format: cell membranes, CHO-K1, Membrane; settings: cho-k1; Not Active = under 50% inhibition at 10 µM
Sequence of Sodium-dependent dopamine transporter (Q01959 whole entry): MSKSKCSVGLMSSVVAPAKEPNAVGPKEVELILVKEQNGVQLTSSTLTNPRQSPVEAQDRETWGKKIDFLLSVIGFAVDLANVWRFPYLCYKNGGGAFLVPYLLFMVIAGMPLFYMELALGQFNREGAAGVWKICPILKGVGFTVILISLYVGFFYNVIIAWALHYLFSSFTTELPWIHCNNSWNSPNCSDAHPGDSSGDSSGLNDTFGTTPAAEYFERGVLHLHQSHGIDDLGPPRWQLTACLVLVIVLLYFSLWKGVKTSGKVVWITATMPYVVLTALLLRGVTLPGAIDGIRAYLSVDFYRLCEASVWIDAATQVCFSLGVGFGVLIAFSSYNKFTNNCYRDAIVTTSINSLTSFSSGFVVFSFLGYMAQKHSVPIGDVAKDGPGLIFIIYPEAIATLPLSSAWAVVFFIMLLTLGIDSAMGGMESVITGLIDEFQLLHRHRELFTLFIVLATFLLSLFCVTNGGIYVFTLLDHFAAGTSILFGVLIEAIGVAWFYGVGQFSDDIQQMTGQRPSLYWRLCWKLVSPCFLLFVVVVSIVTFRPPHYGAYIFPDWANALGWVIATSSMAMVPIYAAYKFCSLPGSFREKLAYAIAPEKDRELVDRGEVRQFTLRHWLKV

Compound | IC50 [1] | IC50 [2] | IC50 (Histamine H2 receptor; read-out: IC50) [µM] | Ki (Histamine H2 receptor; read-out: Ki) [µM] | IC50 (Progesterone receptor; read-out: IC50) [µM] | Ki (Progesterone receptor; read-out: Ki) [µM] | IC50 (Interstitial collagenase) | IC50 ([3]; read-out: IC50) [µM] | IC50 [4] | IC50 (Histamine H2 receptor; cho-k1) | IC50 (Progesterone receptor) | IC50 ([3]; insect cells) | Ki [1] | Ki [2] | Ki [4] | Ki (Histamine H2 receptor; cho-k1) | Ki (Progesterone receptor) | Ki (Interstitial collagenase) | IC50 ([3]; insect cells, read-out: IC50) [µM]
Clc1ccc(COC(Cn2ccnc2)c2ccc(Cl)cc2Cl)c(Cl)c1 (stereo not drawn) [MICONAZOLE] | Not Active | Not Active | 6.75 | 6.64 | 14.9 | 1.94 | Not Active | 29.3 | – | – | – | – | – | – | – | – | – | – | –
CC1CCC(NC(=O)N(CCCl)N=O)CC1 (stereo not drawn) [SEMUSTINE] | Not Active | Not Active | – | – | – | – | Not Active | – | Not Active | Not Active | Not Active | Not Active | – | – | – | – | – | – | –
O=C1C[C@@H]2OCC=C3CN4CC[C@]56c7ccccc7N1[C@H]5[C@H]2[C@H]3C[C@H]46 [STRYCHNINE] | Not Active | Not Active | – | – | – | – | Not Active | – | Not Active | Not Active | Not Active | Not Active | – | – | – | – | – | – | –
C[S+]([O-])c1ccc(-c2nc(-c3ccncc3)c(-c3ccc(F)cc3)[nH]2)cc1 (stereo not drawn) [SB-203580] | Not Active | Not Active | – | – | – | – | Not Active | – | Not Active | Not Active | Not Active | – | – | – | – | – | – | – | –
CC(=N)S [THIOACETAMIDE] | Not Active | Not Active | – | – | – | – | Not Active | – | Not Active | Not Active | Not Active | Not Active | – | – | – | – | – | – | –
COC(=O)[C@H]1[C@H]2C[C@@H]3c4[nH]c5cc(OC)ccc5c4CCN3C[C@H]2C[C@@H](OC(=O)c2cc(OC)c(OC)c(OC)c2)[C@@H]1OC [RESERPINE] | Not Active | Not Active | – | – | – | – | Not Active | – | Not Active | Not Active | Not Active | Not Active | – | – | – | – | – | – | –
O=c1[nH]c(=O)n(C2CCCO2)cc1F (stereo not drawn) [TEGAFUR] | Not Active | Not Active | – | – | – | – | Not Active | – | Not Active | Not Active | Not Active | Not Active | – | – | – | – | – | – | –
C[N+](C)(C)CCOC(=O)CCC(=O)OCC[N+](C)(C)C.[Cl-].[Cl-] [SUCCINYLCHOLINE CHLORIDE] | Not Active | Not Active | – | – | – | – | Not Active | – | Not Active | Not Active | Not Active | Not Active | – | – | – | – | – | – | –
CCCCC(=O)N(Cc1ccc(-c2ccccc2-c2nnn[nH]2)cc1)[C@H](C(=O)O)C(C)C | Not Active | Not Active | – | – | – | – | Not Active | – | Not Active | Not Active | Not Active | Not Active | – | – | – | – | – | – | –
CN1CCN(C2=Nc3cc(Cl)ccc3Nc3ccccc32)CC1 [CLOZAPINE] | Not Active | Not Active | […] | […] | – | – | Not Active | – | – | – | Not Active | Not Active | – | – | – | – | – | – | –
Oc1ccc2c3c1O[C@H]1[C@@H](O)CC[C@@]4(O)[C@@H](C2)N(CC2CCC2)CC[C@]314 [NALBUPHINE] | Not Active | Not Active | – | – | – | – | Not Active | – | Not Active | Not Active | Not Active | Not Active | – | – | – | – | – | – | –
CN(C)C(=O)C(CCN1CCC(O)(c2ccc(Cl)cc2)CC1)(c1ccccc1)c1ccccc1 [LOPERAMIDE] | Not Active | Not Active | 3.08 | 3.03 | – | – | Not Active | – | – | – | Not Active | Not Active | – | – | – | – | – | – | –
O=C(O)c1ccccc1O [SALICYLIC ACID] | Not Active | Not Active | – | – | – | – | Not Active | – | Not Active | Not Active | Not Active | Not Active | – | – | – | – | – | – | –
Nc1ccc(S(=O)(=O)NC(=O)c2ccccc2)cc1 [SULFABENZAMIDE] | Not Active | Not Active | – | – | – | – | Not Active | – | Not Active | Not Active | Not Active | Not Active | – | – | – | – | – | – | –
C[C@@](Cc1ccc(O)c(O)c1)(NN)C(=O)O.O [CARBIDOPA] | Not Active | Not Active | – | – | – | – | Not Active | – | Not Active | Not Active | Not Active | Not Active | – | – | – | – | – | – | –
CCCCCCCCNC(C)C(O)c1ccc(SC(C)C)cc1 (stereo not drawn) [SULOCTIDIL] | Not Active | Not Active | 0.108 | 0.0885 | – | – | Not Active | 0.794 | – | – | Not Active | – | – | – | – | – | – | – | –
CN1CCN(CCCN2c3ccccc3Sc3ccc(C(F)(F)F)cc32)CC1 [TRIFLUOPERAZINE] | Not Active | Not Active | – | – | – | – | Not Active | – | Not Active | Not Active | Not Active | Not Active | – | – | – | – | – | – | –
C[C@]12C=CC(=O)C=C1CC[C@@H]1[C@@H]2C(=O)C[C@@]2(C)[C@H]1CC[C@]2(O)C(=O)CO [PREDNISONE] | Not Active | Not Active | – | – | – | – | Not Active | – | Not Active | Not Active | Not Active | Not Active | – | – | – | – | – | – | –
OCCOCCN1CCN(C2=Nc3ccccc3Sc3ccccc32)CC1 [QUETIAPINE] | Not Active | Not Active | – | – | – | – | Not Active | – | Not Active | Not Active | Not Active | Not Active | – | – | – | – | – | – | –
CC(C)NC[C@H](O)COc1cccc2ccccc12 [LEVOPROPRANOLOL] | Not Active | Not Active | – | – | – | – | Not Active | – | – | Not Active | Not Active | Not Active | – | – | – | – | – | – | –
O=C(O)CCCCC1CCSS1 (stereo not drawn) [LIPOIC ACID, ALPHA] | Not Active | Not Active | – | – | – | – | Not Active | – | Not Active | Not Active | Not Active | Not Active | – | – | – | – | – | – | –
CC(C)NC[C@@H](O)COc1cccc2ccccc12 [DEXPROPRANOLOL] | Not Active | Not Active | – | – | – | – | Not Active | – | – | Not Active | Not Active | Not Active | – | – | – | – | – | – | –
Cc1ccc(C(=O)c2ccc(CC(=O)O)n2C)cc1 [TOLMETIN] | Not Active | Not Active | – | – | – | – | Not Active | – | Not Active | Not Active | Not Active | Not Active | – | – | – | – | – | – | –
CC(=O)OCC(COC(C)=O)OC(C)=O [TRIACETIN] | Not Active | Not Active | – | – | – | – | Not Active | – | Not Active | Not Active | Not Active | Not Active | – | – | – | – | – | – | –
TRANSPLATIN | Not Active | Not Active | – | – | – | – | Not Active | – | Not Active | Not Active | Not Active | – | Not Active | Not Active | Not Active | Not Active | Not Active | Not Active | 1.06
O=C(O)COc1ccc(C(=O)c2cccs2)c(Cl)c1Cl | Not Active | Not Active | – | – | – | – | Not Active | – | Not Active | Not Active | Not Active | Not Active | – | – | – | – | – | – | –
CN1[C@@H]2CC[C@H]1C[C@@H](OC(c1ccccc1)c1ccccc1)C2 [BENZTROPINE] | Not Active | Not Active | 1.21 | 1.19 | – | – | Not Active | – | – | – | Not Active | Not Active | – | – | – | – | – | – | –
